The test system of one test is CyPA. Nature of the test: Yeast GAL4 two hybrid, Gag/mutant fusions versus clone 2.1 (CyPA). Type of test: cell-based, Human. The conditions noted are these: versus 2.1 / CyPA. From the text:
(§1) FIG. 2. The Effect of Mutations in Pr55^gag on the Ability of Gag-GAL4 Fusion Proteins to Activate β-Gal Activity in Yeast Cotransformed with GAL4-CyP Fusion Protein Expression Plasmids. Mutant forms of Pr55^gag were subcloned into pGAL4DB-HG. A schematic of the gag coding sequence is shown, and sequence numbers indicated the nucleotide position in the HXB2C provirus with respect to the 5' end of the 5' long terminal repeat. The names of the mutants indicate the nucleotide sequences deleted or the location of linker inserts. Coding sequences retained by the mutants are shown with a box. Linker insertion mutations are denoted with a triangle. Yeast strain GGY1::171, which carries a GAL1-lacZ fusion gene integrated into the chromosome, was cotransformed with each mutant plasmid against plasmid 2.1 and against plasmid 4.1. Colonies were replica-plated onto nitrocellulose filters and scored for β-gal activity by incubation with X-Gal. Open boxes or triangles indicate that when tested against either 2.1 or 4.1, the mutant had activity equivalent to that of the wild-type (WT) Pr55^gag.
(§2) To localize the portion of Gag that mediates binding to the CyPs, the effect on binding of mutations in the Pr55^gag coding sequence was examined. […] Each of these plasmids encodes a stable fusion protein of the expected size detected on Western blot (Luban et al., 1993). […]

Another test relates to CyPB. Description: Yeast GAL4 two hybrid, Gag/mutant fusions versus clone 4.1 (CyPB). Type of test: cell-based, Human. The note with it: versus 4.1 / CyPB.
From the text: as §1, §2

Another test relates to FKBP. The conditions noted are these: Bierer et al., 1990; cited from earlier work.
In the next test the test system is calcineurin (CN). The conditions noted are these: complex with FKBP; cited from earlier work.
For another test, the system named is T cell activation. The conditions noted are these: Sigal et al., 1991; cited from earlier work.
Another test relates to CyPs. The note with it: Sigal et al., 1991; cited from earlier work.
Another test deals with lymphocyte. The note with it: Viscidi et al., 1989; cited from earlier work.

Non-standard residues stand in square brackets, D forms with d. Residues, ends and D or L forms follow the SMILES beside them. ξ: configuration not given here. ξNMeBmt = C/C=C/C[C@@H](C)[C@@H](O)C(NC)C(=O)O; NMeL = CN[C@@H](CC(C)C)C(=O)O; NMeV = CN[C@H](C(=O)O)C(C)C; NMeA = CN[C@@H](C)C(=O)O; Abu = CC[C@H](N)C(=O)O; Sar = CNCC(=O)O

Take “MPMV pr76^gag: Gag polyprotein of Mason-Pfizer monkey virus”: in the test on CyPA, the “two hybrid interaction with CyPA (in words)” value is “no detectable activity”. The “two hybrid interaction with CyPB (in words)” value in the test on CyPB is reported as “no detectable activity”.

For `CO[C@H]1C[C@@H]2CC[C@@H](C)[C@@](O)(O2)C(=O)C(=O)N2CCCC[C@H]2C(=O)O[C@H]([C@H](C)C[C@@H]2CC[C@@H](O)[C@H](OC)C2)CC(=O)[C@H](C)/C=C(\C)[C@@H](O)[C@@H](OC)C(=O)[C@H](C)C[C@H](C)/C=C/C=C/C=C/1C` [Rapamycin], in the test with FKBP, the “competition with FK506 for binding to FKBP” value was “competes with FK506 for binding to FKBP”. In the test with calcineurin (CN), the “binding to and inhibiting CN phosphatase activity as FKBP complex” value was “not capable of binding CN”.

`C=CC[C@@H]1/C=C(\C)C[C@H](C)C[C@H](OC)[C@H]2O[C@@](O)(C(=O)C(=O)N3CCCC[C@H]3C(=O)O[C@H](/C(C)=C/[C@@H]3CC[C@@H](O)[C@H](OC)C3)[C@H](C)[C@@H](O)CC1=O)[C@H](C)C[C@@H]2OC` [FK506]: the “binding to and inhibiting CN phosphatase activity as FKBP complex” value with calcineurin (CN) was “capable of binding to and inhibiting the phosphatase activity of CN”.

Take `C/C=C/C[C@@H](C)[C@@H](O)C1C(=O)N[C@@H](CC)C(=O)N(C)CC(=O)N(C)[C@@H](CC(C)C)C(=O)N[C@@H](C(C)C)C(=O)N(C)[C@@H](C)C(=O)N[C@@H](C)C(=O)N[C@H](C)C(=O)N(C)[C@@H](CC(C)C)C(=O)N(C)[C@@H](CC(C)C)C(=O)N(C)[C@@H](C(C)C)C(=O)N1C` (stereo partly shown) [MeAla-CsA] (cyclo(A[dA][NMeL][NMeL][NMeV][ξNMeBmt][Abu][Sar][NMeL]V[NMeA])): the “suppression of T cell activation” value in the test on T cell activation is “do not suppress T cell activation”. Besides, the “binding to CyPs” value in the test with CyPs was “bind to CyPs”.

Consider “MoMLV Pr65^gag: Gag polyprotein of Moloney murine leukemia virus”, for which the “two hybrid interaction with CyPA (in words)” value with CyPA is “no detectable activity”. Also, the “two hybrid interaction with CyPB (in words)” value in the test on CyPB was “no detectable activity”.

B1: Tat protein: Purified Tat protein (HIV-1) (protein, UniProt P04608 1-86, looked up)
Protein Tat: MEPVDPRLEPWKHPGSQPKTACTNCYCKKCCFHCQVCFITKALGISYGRKKRRQRRRAHQNSQTHQASLSKQPTSQPRGDPTGPKE
Consider B1, for which the antigen-stimulated lymphocyte proliferation entry in the test on lymphocyte is recorded as “inhibits”.

Values taken from patent US5773225A, “Screening method for the identification of compounds capable of abrogation HIV-1 gag-cyclophilin complex formation” (The Trustees of Columbia University in the City of New York, priority 1994, dated 1998).
